Assay results from patent publication US12161612B2, “Methods and compositions for reducing symptoms of Parkinson's disease” (NeuroDerm, Ltd., priority 2023, dated 2024).

Key:
[1] = ND0612-005a/ND0612-005b plasma carbidopa levels after subcutaneous carbidopa doses; assay type: in vivo, human; settings: 60 mg/ml levodopa with 7.5, 6 or 4 mg/ml carbidopa over 24 hours, 17.9, 26.9, 33.6 mg/24 h carbidopa
Protocol: In a separate clinical trial (ND0612-005a and ND0612-005b, open label design studies), the plasma carbidopa levels were tested in view of the subcutaneous administration of several carbidopa doses. Three formulations, comprising 60 mg/ml levodopa and (a) 7.5 mg/ml; (b) 6 mg/ml; or 4 mg/ml of carbidopa, were administered to three groups of subjects over the course of 24 hours, providing a total of 17.9 mg/24 h carbidopa to each subject in the first group, 26.9 mg/24 h carbidopa to each subject in the second group and 33.6 mg/24 h carbidopa to each subject in the third group.

[2] = ND0612-001 dose proportionality, 24 hour continuous subcutaneous infusion; assay type: in vivo, human; settings: healthy male subjects; LD (6% w/w)/CD (1.4% w/w) composition, 24 hour subcutaneous infusion at 80-240 μl/h
Protocol: Subjects were administered with a composition comprising LD (6% w/w)/CD (1.4% w/w) by way of a 24 hour continuous infusion at varying infusion rates: • Group 1:80 μl/h • Group 2:120 μl/h • Group 3:160 μl/h • Group 4:200 μl/h • Group 5:240 μl/h
Several PK parameters were derived for both LD and CD in the dose proportionality assessment, including AUC (hr*ng/ml), Cmax (ng/ml), C15 (ng/ml), and C24 (ng/mL).

| SMILES | carbidopa Cmax dose proportionality [1] | dose proportionality of PK parameters (AUC, Cmax, C15, C24) [2] |
| --- | --- | --- |
| C[C@@](Cc1ccc(O)c(O)c1)(NN)C(=O)O [CD, carbidopa] | showed clear dose proportionality | demonstrated dose proportionality |
| N[C@@H](Cc1ccc(O)c(O)c1)C(=O)O [LD, L-3,4-dihydroxyphenylalanine] | – | demonstrated dose proportionality |
